# Source: ChEMBL document CHEMBL1201862, “PubChem BioAssay data set” (2004)
# Activity calls are given as the source filed them. Rule as the data show it: actives have a measured IC50 and inactives only a lower limit.
# Target: Envelope glycoprotein gp160 (Human immunodeficiency virus 1, UniProt Q6QLK5)
# Assay: cell-free HIV fusion peptide-binding blockers – biochemical, uHTS, fluorescence dequenching, […] (AID 1986)
# Envelope glycoprotein gp160, sequence (Q6QLK5 whole entry, the tested form may be a part): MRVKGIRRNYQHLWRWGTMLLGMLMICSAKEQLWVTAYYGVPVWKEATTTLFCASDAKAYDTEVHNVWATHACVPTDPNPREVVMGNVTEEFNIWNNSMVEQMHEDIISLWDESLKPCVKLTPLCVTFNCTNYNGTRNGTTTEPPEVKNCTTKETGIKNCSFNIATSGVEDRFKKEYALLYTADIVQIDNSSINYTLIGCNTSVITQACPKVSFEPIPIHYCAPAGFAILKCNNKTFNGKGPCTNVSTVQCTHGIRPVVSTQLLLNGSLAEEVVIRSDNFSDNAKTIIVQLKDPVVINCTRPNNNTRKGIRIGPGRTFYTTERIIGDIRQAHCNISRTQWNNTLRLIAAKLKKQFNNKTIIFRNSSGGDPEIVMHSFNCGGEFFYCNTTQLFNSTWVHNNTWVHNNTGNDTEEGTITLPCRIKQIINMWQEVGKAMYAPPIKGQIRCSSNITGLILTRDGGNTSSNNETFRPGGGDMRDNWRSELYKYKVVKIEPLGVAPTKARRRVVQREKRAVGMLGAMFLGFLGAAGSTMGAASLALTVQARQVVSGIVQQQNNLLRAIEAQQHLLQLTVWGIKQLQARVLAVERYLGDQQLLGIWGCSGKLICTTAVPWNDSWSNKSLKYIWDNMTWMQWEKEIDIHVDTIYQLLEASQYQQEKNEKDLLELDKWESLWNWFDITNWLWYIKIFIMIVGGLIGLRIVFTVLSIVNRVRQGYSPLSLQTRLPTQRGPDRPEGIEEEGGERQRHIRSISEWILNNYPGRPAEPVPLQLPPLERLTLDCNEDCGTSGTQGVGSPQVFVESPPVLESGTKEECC
compound,measurement,value
O=C(N/N=C/c1ccc(-c2ccc(S(=O)(=O)Nc3ncccn3)cc2)o1)c1cc2ccccc2cc1O,IC50,5.36 µM (active)
